According to patent publication US20120270237A9, “METHODS FOR THE IDENTIFICATION OF KINASE INTERACTING MOLECULES AND FOR THE PURIFICATION OF KINASE PROTEINS” (Cellzone AG, priority 2009, published 2012):

Assays:
Settings in all cases: 10 μM free compound
FAK = target: T1, FAK (Homo sapiens, UniProt Q05397); assay: Kinobeads competition binding, HeLa Placenta lysate mix
T1 construct: capturing and identification of kinases from mixed HeLa placenta lysates; endogenous in cells; host or cells: mixed lysate of HeLa cells and placenta tissue
T1 sequence (Q05397 whole entry): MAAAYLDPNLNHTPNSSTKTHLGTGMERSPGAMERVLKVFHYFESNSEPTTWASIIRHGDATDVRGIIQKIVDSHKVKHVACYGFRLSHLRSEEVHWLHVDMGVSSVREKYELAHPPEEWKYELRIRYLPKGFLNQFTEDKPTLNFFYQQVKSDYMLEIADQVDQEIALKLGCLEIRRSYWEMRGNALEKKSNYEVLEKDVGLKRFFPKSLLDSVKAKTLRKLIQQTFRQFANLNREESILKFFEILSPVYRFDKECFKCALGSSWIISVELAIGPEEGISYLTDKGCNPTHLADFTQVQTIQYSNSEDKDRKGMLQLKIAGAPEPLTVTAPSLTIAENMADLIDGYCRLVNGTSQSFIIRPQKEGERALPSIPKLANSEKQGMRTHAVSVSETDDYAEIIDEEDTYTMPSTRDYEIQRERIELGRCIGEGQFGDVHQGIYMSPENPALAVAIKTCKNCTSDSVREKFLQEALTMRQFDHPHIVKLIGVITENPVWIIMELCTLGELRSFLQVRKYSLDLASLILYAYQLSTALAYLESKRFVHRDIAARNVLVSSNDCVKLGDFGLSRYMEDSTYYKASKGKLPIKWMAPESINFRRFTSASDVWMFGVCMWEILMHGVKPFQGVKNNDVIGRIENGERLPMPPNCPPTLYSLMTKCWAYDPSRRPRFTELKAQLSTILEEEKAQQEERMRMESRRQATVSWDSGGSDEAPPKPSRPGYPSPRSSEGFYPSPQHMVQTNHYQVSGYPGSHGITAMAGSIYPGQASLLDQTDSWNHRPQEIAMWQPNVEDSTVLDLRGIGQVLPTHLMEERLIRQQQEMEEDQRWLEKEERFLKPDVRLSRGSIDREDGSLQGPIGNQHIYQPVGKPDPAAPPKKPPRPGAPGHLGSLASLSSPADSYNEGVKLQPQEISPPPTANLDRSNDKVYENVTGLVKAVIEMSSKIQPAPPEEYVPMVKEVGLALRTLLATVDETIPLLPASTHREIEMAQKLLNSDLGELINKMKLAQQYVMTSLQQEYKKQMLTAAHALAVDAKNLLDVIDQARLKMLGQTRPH
Protocol: (§1) To one aliquot of cell lysate 10 μM of the free compound (FIG. 3, CZC31326) was added and allowed to bind to proteins in the lysate. Then the affinity matrix with the immobilized compound was added to capture proteins that were not interacting with the previously added free compound. Beads were separated from the lysate and bead bound proteins were eluted in SDS sample buffer and subsequently separated by SDS-Polyacrylamide gel electrophoresis (FIG. 10). Suitable gel bands were cut out and subjected to in-gel proteolytic digestion with trypsin. The second lysate aliquot was processed identically, however no free compound was added (DMSO solvent control). Peptides originating from samples 1 and 2 were labeled with iTRAQ reagents (iTRAQ 114 and iTRAQ 117) and the combined samples were analyzed with a nano-flow liquid chromatography system coupled online to a tandem mass spectrometer (LC-MS/MS) experiment followed by iTRAQ reporter ion quantification in the MS/MS spectra as described in Example 2.

PKG1 = target: T2, PKG1 (Homo sapiens, UniProt Q13976); assay: as above
T2 construct: capturing and identification of kinases from mixed HeLa placenta lysates; endogenous in cells; host or cells: mixed lysate of HeLa cells and placenta tissue
T2 sequence (Q13976 whole entry): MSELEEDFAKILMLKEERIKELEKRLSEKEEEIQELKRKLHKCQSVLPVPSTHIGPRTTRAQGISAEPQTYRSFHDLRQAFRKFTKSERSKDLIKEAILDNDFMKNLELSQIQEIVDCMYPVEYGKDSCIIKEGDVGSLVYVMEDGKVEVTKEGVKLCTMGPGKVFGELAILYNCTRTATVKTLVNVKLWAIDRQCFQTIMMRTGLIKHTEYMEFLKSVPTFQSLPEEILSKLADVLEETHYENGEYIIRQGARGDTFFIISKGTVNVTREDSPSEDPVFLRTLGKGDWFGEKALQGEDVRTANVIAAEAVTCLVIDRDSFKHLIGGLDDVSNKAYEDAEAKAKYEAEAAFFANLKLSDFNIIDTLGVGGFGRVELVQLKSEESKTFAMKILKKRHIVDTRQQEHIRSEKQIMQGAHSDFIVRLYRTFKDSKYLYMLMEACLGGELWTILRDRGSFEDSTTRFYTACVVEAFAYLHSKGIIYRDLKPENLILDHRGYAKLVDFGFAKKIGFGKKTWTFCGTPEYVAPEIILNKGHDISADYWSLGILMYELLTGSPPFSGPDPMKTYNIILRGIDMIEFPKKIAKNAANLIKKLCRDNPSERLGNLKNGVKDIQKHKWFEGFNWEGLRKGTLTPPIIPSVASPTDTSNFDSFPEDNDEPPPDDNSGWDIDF
Protocol: as §1

TIE2 = target: T3, TIE2 (Homo sapiens, UniProt Q02763); assay: as above
T3 construct: capturing and identification of kinases from mixed HeLa placenta lysates; endogenous in cells; host or cells: mixed lysate of HeLa cells and placenta tissue
T3 sequence (Q02763 23-1124): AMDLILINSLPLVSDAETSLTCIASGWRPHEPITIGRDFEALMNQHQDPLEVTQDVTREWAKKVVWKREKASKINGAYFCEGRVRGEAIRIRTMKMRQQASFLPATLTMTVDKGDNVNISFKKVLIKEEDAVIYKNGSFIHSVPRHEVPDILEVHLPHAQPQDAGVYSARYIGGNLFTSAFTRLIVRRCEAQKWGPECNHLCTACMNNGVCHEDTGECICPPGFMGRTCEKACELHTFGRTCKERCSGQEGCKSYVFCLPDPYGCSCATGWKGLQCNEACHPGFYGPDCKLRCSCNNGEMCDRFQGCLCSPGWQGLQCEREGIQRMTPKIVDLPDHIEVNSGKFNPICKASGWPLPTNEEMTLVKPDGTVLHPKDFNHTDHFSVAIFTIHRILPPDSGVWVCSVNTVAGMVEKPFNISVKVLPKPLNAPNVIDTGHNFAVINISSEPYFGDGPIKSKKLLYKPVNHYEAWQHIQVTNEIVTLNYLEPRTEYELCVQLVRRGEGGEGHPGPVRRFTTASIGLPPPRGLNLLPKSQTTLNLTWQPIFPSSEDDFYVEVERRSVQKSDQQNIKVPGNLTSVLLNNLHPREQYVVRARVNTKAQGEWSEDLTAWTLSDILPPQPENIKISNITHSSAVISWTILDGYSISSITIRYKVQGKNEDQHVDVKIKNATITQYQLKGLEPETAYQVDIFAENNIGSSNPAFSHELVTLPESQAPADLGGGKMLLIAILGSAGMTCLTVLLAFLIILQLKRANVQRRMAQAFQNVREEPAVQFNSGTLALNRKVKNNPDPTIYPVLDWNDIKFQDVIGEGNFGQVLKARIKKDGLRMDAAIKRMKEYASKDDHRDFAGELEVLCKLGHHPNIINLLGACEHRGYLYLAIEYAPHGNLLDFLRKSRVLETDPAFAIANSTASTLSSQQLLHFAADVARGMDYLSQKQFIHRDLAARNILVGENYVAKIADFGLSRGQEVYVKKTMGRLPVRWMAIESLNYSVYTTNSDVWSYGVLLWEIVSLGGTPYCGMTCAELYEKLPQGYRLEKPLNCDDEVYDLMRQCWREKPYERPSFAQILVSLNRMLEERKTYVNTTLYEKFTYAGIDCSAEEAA
Protocol: as §1

MRCKa = target: T4, MRCKa (Homo sapiens, UniProt Q5VT25); assay: as above
T4 construct: capturing and identification of kinases from mixed HeLa placenta lysates; endogenous in cells; host or cells: mixed lysate of HeLa cells and placenta tissue
Protocol: as §1

CaMKK1 = target: T5, CaMKK1 (Homo sapiens, UniProt Q8N5S9); assay: as above
T5 construct: capturing and identification of kinases from mixed HeLa placenta lysates; endogenous in cells; host or cells: mixed lysate of HeLa cells and placenta tissue
T5 sequence (Q8N5S9 whole entry): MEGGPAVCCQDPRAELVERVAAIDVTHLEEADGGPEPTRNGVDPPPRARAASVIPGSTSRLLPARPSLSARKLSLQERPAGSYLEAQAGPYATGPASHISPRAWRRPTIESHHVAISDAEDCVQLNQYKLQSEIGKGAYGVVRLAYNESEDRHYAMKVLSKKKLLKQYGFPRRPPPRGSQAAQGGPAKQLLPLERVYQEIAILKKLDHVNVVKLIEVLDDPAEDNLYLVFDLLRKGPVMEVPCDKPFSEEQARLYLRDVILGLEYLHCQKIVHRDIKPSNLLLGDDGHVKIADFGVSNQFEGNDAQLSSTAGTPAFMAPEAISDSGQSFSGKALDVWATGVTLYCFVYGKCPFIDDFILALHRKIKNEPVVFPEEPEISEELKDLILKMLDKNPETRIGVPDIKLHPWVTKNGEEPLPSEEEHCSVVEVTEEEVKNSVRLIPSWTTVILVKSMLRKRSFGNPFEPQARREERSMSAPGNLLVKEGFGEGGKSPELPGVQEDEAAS
Protocol: as §1

AMPKa2 = target: T6, AMPKa2 (Homo sapiens, UniProt P54646); assay: as above
T6 construct: capturing and identification of kinases from mixed HeLa placenta lysates; endogenous in cells; host or cells: mixed lysate of HeLa cells and placenta tissue
Protocol: as §1

MAP3K6 = target: T7, MAP3K6 (Homo sapiens, UniProt O95382); assay: as above
T7 construct: capturing and identification of kinases from mixed HeLa placenta lysates; endogenous in cells; host or cells: mixed lysate of HeLa cells and placenta tissue
Protocol: as §1

MRCKb = target: T8, MRCKb (Homo sapiens, UniProt Q9Y5S2); assay: as above
T8 construct: capturing and identification of kinases from mixed HeLa placenta lysates; endogenous in cells; host or cells: mixed lysate of HeLa cells and placenta tissue
T8 sequence (Q9Y5S2 whole entry): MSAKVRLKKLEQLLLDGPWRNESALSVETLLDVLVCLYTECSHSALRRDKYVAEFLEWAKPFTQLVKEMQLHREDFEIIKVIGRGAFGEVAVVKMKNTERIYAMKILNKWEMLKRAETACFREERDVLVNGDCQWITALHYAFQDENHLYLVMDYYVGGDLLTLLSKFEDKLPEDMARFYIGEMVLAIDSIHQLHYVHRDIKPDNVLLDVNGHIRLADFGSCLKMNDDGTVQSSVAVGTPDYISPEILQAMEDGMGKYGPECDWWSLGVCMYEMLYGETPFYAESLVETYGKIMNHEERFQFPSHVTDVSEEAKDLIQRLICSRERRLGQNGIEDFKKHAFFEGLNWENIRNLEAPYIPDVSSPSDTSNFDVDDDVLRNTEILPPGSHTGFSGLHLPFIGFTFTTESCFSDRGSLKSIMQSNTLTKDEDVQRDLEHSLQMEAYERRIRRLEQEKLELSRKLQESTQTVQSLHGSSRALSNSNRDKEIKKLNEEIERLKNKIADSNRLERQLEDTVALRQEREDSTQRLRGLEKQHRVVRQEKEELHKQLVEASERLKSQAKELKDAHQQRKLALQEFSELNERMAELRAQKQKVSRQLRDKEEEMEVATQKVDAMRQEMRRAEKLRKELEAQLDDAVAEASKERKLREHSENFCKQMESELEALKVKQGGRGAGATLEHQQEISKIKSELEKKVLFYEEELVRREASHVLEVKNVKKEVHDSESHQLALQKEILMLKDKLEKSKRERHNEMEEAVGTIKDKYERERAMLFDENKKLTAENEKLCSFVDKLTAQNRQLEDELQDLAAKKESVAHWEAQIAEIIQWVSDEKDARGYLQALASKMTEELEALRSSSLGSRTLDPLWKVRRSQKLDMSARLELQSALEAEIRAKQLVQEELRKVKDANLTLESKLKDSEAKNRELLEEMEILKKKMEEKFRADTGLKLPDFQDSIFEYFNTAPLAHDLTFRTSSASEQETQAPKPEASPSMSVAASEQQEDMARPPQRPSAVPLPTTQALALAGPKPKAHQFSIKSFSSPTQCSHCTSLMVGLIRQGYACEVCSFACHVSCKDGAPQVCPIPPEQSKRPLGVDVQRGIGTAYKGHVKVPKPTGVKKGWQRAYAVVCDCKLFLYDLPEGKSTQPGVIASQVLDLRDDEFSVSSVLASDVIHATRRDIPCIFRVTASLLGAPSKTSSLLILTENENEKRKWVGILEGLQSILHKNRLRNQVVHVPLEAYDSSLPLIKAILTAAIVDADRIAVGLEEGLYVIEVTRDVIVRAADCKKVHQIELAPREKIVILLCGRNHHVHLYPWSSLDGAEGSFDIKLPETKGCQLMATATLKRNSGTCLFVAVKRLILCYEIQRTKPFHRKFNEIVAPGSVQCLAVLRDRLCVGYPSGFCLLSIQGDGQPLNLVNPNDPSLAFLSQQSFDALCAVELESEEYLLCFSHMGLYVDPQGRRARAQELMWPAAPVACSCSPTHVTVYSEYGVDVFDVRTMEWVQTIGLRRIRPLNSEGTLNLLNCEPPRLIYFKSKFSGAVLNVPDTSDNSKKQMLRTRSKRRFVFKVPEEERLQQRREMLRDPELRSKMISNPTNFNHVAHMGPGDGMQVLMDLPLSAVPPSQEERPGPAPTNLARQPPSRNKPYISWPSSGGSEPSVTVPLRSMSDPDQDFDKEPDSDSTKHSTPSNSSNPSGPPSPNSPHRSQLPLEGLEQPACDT
Protocol: as §1

FLT4 = target: T9, FLT4 (Homo sapiens, UniProt P35916); assay: as above
T9 construct: capturing and identification of kinases from mixed HeLa placenta lysates; endogenous in cells; host or cells: mixed lysate of HeLa cells and placenta tissue
Protocol: as §1

MAP3K2 = target: T10, MAP3K2 (Homo sapiens, UniProt Q9Y2U5); assay: Kinobeads competition binding, HL60 cell lysate; set-up: endogenous in cells; host or cells: HL60 cell lysate
T10 sequence (Q9Y2U5 1-619): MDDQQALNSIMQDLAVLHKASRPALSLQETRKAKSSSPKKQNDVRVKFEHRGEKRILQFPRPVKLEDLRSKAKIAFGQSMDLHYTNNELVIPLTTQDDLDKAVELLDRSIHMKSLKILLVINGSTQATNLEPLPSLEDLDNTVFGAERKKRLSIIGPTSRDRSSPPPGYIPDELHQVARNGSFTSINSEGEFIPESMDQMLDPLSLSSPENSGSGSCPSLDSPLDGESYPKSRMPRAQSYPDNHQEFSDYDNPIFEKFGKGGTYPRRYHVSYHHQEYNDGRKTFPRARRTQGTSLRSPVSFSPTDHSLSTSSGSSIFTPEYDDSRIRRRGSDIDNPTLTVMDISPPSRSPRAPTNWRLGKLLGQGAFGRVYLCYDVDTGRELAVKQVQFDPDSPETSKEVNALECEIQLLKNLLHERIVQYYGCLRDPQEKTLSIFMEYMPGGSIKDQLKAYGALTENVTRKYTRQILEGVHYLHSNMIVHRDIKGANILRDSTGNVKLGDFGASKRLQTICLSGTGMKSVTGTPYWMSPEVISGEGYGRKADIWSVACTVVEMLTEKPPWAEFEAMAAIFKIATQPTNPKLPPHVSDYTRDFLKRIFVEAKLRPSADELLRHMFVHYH
Protocol: To one aliquot of cell lysate 10 μM of the free compound (FIG. 3, CZC31326) was added and allowed to bind to proteins in the lysate. Then the affinity matrix with the immobilized compound (Example 1) was added to capture proteins that were not interacting with the previously added free compound. Beads were separated from the lysate and bead bound proteins were eluted in SDS sample buffer and subsequently separated by SDS-Polyacrylamide gel electrophoresis (FIG. 4). Suitable gel bands were cut out and subjected to in-gel proteolytic digestion with trypsin. The second lysate aliquot was processed identically, however no free compound was added (DMSO solvent control). Peptides originating from samples 1 and 2 were labeled with iTRAQ reagents (iTRAQ 114 and iTRAQ 117) and the combined samples were analyzed with a nano-flow liquid chromatography system coupled online to a tandem mass spectrometer (LC-MS/MS) experiment followed by iTRAQ reporter ion quantification in the MS/MS spectra (Ross et al., 2004. Mol. Cell. Proteomics 3(12):1154-1169). Further experimental protocols can be found in WO2006/134056 and a previous publication (Bantscheff et al., 2007. Nature Biotechnology 25, 1035-1044). Sepharose-beads with the immobilized compound (100 μl beads per pull-down experiment) were equilibrated in lysis buffer and incubated with a cell lysate sample containing 50 mg of protein on an end-over-end shaker (Roto Shake Genie, Scientific Industries Inc.) for 2 hours at 4° C. […] The iTRAQ reagents are a set of multiplexed, amine-specific, stable isotope reagents that can label peptides on amino groups in up to four different biological samples enabling simultaneous identification and quantitation of peptides. […] Relative protein quantitation was performed using peak areas of iTRAQ reporter ion signals essentially as described in an earlier publication (Bantscheff et al., 2007. Nature Biotechnology 25, 1035-1044).

inhibition at 10 µM (FAK): 93.8% | inhibition at 10 µM (PKG1): 90.4% | inhibition at 10 µM (TIE2): 91.6% | inhibition at 10 µM (MRCKa): 92.1% | inhibition at 10 µM (CaMKK1): 94.2% | inhibition at 10 µM (AMPKa2): 95.2% | inhibition at 10 µM (MAP3K6): 84.3% | inhibition at 10 µM (MRCKb): 94% | inhibition at 10 µM (FLT4): 89.3% | inhibition at 10 µM (MAP3K2): 96.3%
Compound: CS(=O)(=O)Nc1ccccc1Nc1nc(Nc2cccc(OCCN)c2)ncc1Cl [CZC31326, N-(2-(2-(3-(2-aminoethoxy)phenylamino)-5-chloropyrimidin-4-ylamino)phenyl)methanesulfonamide]
